In PubChem BioAssay AID588539 (The Scripps Research Institute Molecular Screening Center, 2011):

Assay: cell cycle phase distribution in DLD-1 cells, late-stage follow-up, counter-screen for KLF5 inhibitor project, flow cytometry, propidium iodide, powder samples (AID 588539)
Details: DLD-1 cell cycle, at 10 µM; for G1 cells: G1 phase fraction; for G2/M cells: G2/M phase fraction; for S cells: S phase fraction; for subG1 cells: stronger effect = higher value

Question: For `CN(C(=O)COC(=O)/C=C/c1cccc([N+](=O)[O-])c1)C1CCS(=O)(=O)C1` (stereo not drawn), which G1 cells (24 h) is on record?
Answer: 39.4%

Question: What about the G2/M cells (24 h) of the same molecule?
Answer: 34.7%

Question: And the S cells (24 h)?
Answer: 18.3%

Question: What about the subG1 cells (24 h) of the same molecule?
Answer: 8.03%

Question: And the G1 cells (48 h)?
Answer: 27.6%

Question: What about the G2/M cells (48 h) of the same molecule?
Answer: 57.6%

Question: And the S cells (48 h)?
Answer: 13%

Question: What about the subG1 cells (48 h) of the same molecule?
Answer: 1.86%
